75 compounds from patent US7998989B2, “2-Imino-1,3-thiazoline-based compounds and T-type calcium channel inhibitors containing the same” (Korea Institute of Science and Technology, priority 2007, dated 2011) can be followed below.

For orientation: melting point means the temperature of the solid-liquid transition.

Structures are written as SMILES.

With `CN1C(=NC2CCCCC2)SCC1CC(=O)NCc1ccccc1.Cl` (stereo not drawn), the melting point fell in the range of 206 to 206.5 °C.

`COc1ccc(NC(=O)CC2CSC(=NC3CCCC3)N2C)cc1.Cl` (stereo not drawn): the melting point fell in the range of 210 to 211 °C.

For `CN1C(=NC2CCCC2)SCC1CC(=O)Nc1ccc(CC#N)cc1.Cl` (stereo not drawn), the melting point fell in the range of 199.5 to 200 °C. Turning to `Cc1ccc(NC(=O)CC2CSC(=NC3CCCC3)N2C)c(Cl)c1.Cl` (stereo not drawn), the melting point is 185 to 186.5 °C. Compound `Cc1ccc(NC(=O)CC2CSC(=NC3CCCC3)N2C)c(F)c1.Cl` (stereo not drawn) displayed a melting point of 189 to 190 °C. Consider `CN1C(=NC2CCCC2)SCC1CC(=O)Nc1ccc(F)cc1F.Cl` (stereo not drawn), for which the melting point lay in the range of 240 to 242.5 °C. The compound `CN1C(=NC2CCCC2)SCC1CC(=O)Nc1ccccc1.Cl` (stereo not drawn) yielded a melting point of 231.5 to 233 °C. In the case of `COc1ccc(CNC(=O)CC2CSC(=NC3CCCCC3)N2C)cc1.Cl` (stereo not drawn) it was 193 to 195 °C; in that of `CCOc1ccc(NC(=O)CC2CSC(=NC3CC3)N2C)cc1.Cl` (stereo not drawn), 219 to 220 °C; in that of `CN1C(=NC2CC2)SCC1CC(=O)Nc1ccc(F)cc1.Cl` (stereo not drawn), 252 to 253.5 °C. On to `CN1C(=NC2CC2)SCC1CC(=O)Nc1ccc(F)cc1Cl.Cl` (stereo not drawn), for which the melting point fell in the range of 237 to 239 °C. On to `CN1C(=NC2CC2)SCC1CC(=O)Nc1ccc(CC#N)cc1.Cl` (stereo not drawn), for which the melting point lay in the range of 245 to 245.5 °C.

On to `CN1C(=NC2CC2)SCC1CC(=O)Nc1ccc(Br)cc1.Cl` (stereo not drawn), for which the melting point lay in the range of 227 to 228.5 °C. The compound `Cc1ccc(NC(=O)CC2CSC(=NC3CC3)N2C)c(Cl)c1.Cl` (stereo not drawn) came in with a melting point of 212 to 212.5 °C.

Consider `CN1C(=NC2CC2)SCC1CC(=O)Nc1cc(Cl)cc(Cl)c1.Cl` (stereo not drawn), for which the melting point is 260.5 to 261 °C. Compound `Cc1ccc(NC(=O)CC2CSC(=NC3CC3)N2C)c(F)c1.Cl` (stereo not drawn) gave a melting point of 199.5 to 200.5 °C. `CN1C(=NC2CC2)SCC1CC(=O)Nc1ccc(F)cc1F.Cl` (stereo not drawn): the melting point is 245 to 246 °C.

Compound `CN1C(=NC2CC2)SCC1CC(=O)Nc1cc(Cl)ccc1F.Cl` (stereo not drawn) had a melting point of 233.5 to 234.5 °C.

Consider `CN1C(=NC2CC2)SCC1CC(=O)Nc1cc([N+](=O)[O-])ccc1F.Cl` (stereo not drawn), for which the melting point was in the range of 237.5 to 238 °C. Consider `CN1C(=NC2CC2)SCC1CC(=O)Nc1ccc(Cl)cc1F.Cl` (stereo not drawn), for which the melting point was 237 to 237.5 °C. In the case of `CN1C(=NC2CC2)SCC1CC(=O)Nc1ccc(Cl)cc1.Cl` (stereo not drawn) it was 241.5 to 242.5 °C. Compound `CN1C(=NC2CC2)SCC1CC(=O)Nc1ccccc1.Cl` (stereo not drawn) registered a melting point of 240.5 to 241 °C. `CC(C)c1ccc(NC(=O)CC2CSC(=NC3CC3)N2C)cc1.Cl` (stereo not drawn): the melting point was 238 to 238.5 °C.

In turn, `CN1C(=NC2CC2)SCC1CC(=O)NCc1ccc(F)cc1.Cl` (stereo not drawn) displayed a melting point of 200.5 to 202.5 °C. For `CN1C(=NC2CC2)SCC1CC(=O)NCc1ccc(Cl)cc1.Cl` (stereo not drawn), the melting point is 225.5 to 227 °C. With `COc1ccc(CNC(=O)CC2CSC(=NC3CC3)N2C)cc1.Cl` (stereo not drawn), the melting point fell in the range of 220.5 to 222 °C.

In turn, `CN1C(=NC2CCCC2)SCC1CC(=O)NCc1ccc(F)cc1.Cl` (stereo not drawn) displayed a melting point of 160.5 to 162 °C. In the case of `COc1ccc(CNC(=O)CC2CSC(=NC3CCCC3)N2C)cc1.Cl` (stereo not drawn), the melting point was 172 to 173.5 °C.

Regarding `CN1C(=NCC2CCCCC2)SCC1CC(=O)Nc1ccc(Oc2ccccc2)cc1.Cl` (stereo not drawn), the melting point came out at 250.8 °C.

As to `Cc1ccc(NC(=O)CC2CSC(=NC3CCCCC3)N2C2CC2)cc1.Cl` (stereo not drawn), the melting point was 216.4 °C. Compound `CCN1C(=NC2CCCCC2)SCC1CC(=O)Nc1ccc(Cl)cc1.Cl` (stereo not drawn) gave a melting point of 218.3 °C. Turning to `CCCN1C(=NC2CCCCC2)SCC1CC(=O)Nc1cc(C(F)(F)F)cc(C(F)(F)F)c1.Cl` (stereo not drawn), the melting point stood at 243.4 °C. On to `Cl.O=C(CC1CSC(=NC2CCCCC2)N1Cc1ccccc1)Nc1cc(C(F)(F)F)cc(C(F)(F)F)c1` (stereo not drawn), for which the melting point was 234.6 °C. On to `Cl.O=C(CC1CSC(=NC2CCCCC2)N1Cc1ccccc1)Nc1ccc(Oc2ccccc2)cc1` (stereo not drawn), for which the melting point was 209.5 °C.

Turning to `Cl.O=C(CC1CSC(=NC2CCCCC2)N1Cc1ccccc1)Nc1cc([N+](=O)[O-])ccc1F` (stereo not drawn), the melting point worked out at 166.4 °C.

Compound `CC(C)c1ccc(NC(=O)CC2CSC(=NC3CCCCC3)N2C2CCCCC2)cc1.Cl` (stereo not drawn) showed a melting point of 199.7 °C. Turning to `Cl.O=C(CC1CSC(=NC2CCCCC2)N1C1CCCCC1)Nc1ccc(F)cc1` (stereo not drawn), the melting point came out at 256 °C. Take `Cc1ccc(NC(=O)CC2CSC(=NC3CCCCC3)N2C2CCCCC2)cc1Cl.Cl` (stereo not drawn): the melting point worked out at 173 °C. Turning to `Cl.O=C(CC1CSC(=NC2CCCCC2)N1C1CCCCC1)Nc1cc(Cl)ccc1F` (stereo not drawn), the melting point came out at 158 °C. The compound `Cl.O=C(CC1CSC(=NC2CCCCC2)N1C1CCCCC1)NCc1ccc(Cl)cc1` (stereo not drawn) came in with a melting point of 152 °C.

Compound `CC(C)(C)c1ccc(NC(=O)CC2CSC(=NC3CCCCC3)N2C2CCCCC2)cc1.Cl` (stereo not drawn) had a melting point of 244 °C.

On to `Cl.O=C(CC1CSC(=NC2CCCCC2)N1C1CCCCC1)Nc1cc(Cl)cc(Cl)c1` (stereo not drawn), for which the melting point turned out to be 202 °C. In the case of `CN1C(=NC2CCCCCC2)SCC1C(=O)Nc1ccccc1.Cl` (stereo not drawn) it was 211.4 °C. Regarding `CC1SC(=NC2CCCCC2)N(C)C1CC(=O)Nc1ccccc1.Cl` (stereo not drawn), the melting point fell in the range of 231 to 234 °C. The compound `CC1SC(=NC2CCCCC2)N(C)C1CC(=O)Nc1ccc(C(C)(C)C)cc1.Cl` (stereo not drawn) had a melting point of 255 to 257 °C. Compound `CC1SC(=NC2CCCC2)N(C)C1CC(=O)Nc1ccccc1.Cl` (stereo not drawn) displayed a melting point of 186 to 188 °C. The value for `Cc1ccc(NC(=O)CC2C(C)SC(=NC3CCCC3)N2C)cc1.Cl` (stereo not drawn) was 228 to 229 °C; that for `CC1SC(=NC2CCCCC2)N(C)C1CC(=O)Nc1ccc([N+](=O)[O-])cc1.Cl` (stereo not drawn) was 215 to 217 °C; that for `CC1SC(=NC2CCCC2)N(C)C1CC(=O)Nc1ccccc1F.Cl` (stereo not drawn) was 153 °C. The value for `Br.CN1C(=NC2CCCCCC2)SCC1C(=O)Nc1cc([N+](=O)[O-])ccc1F` (stereo not drawn) was 264.8 °C; that for `CN1C(=NC2CCCCCC2)SCC1C(=O)Nc1ccc(F)cc1.Cl` (stereo not drawn) was 265.3 °C; that for `Br.CCc1ccc(NC(=O)C2CSC(=NC3CCCCCC3)N2C)cc1` (stereo not drawn) was 278 to 279 °C.

Compound `Br.Cc1ccc(NC(=O)C2CSC(=NC3CCCCCC3)N2C)cc1` (stereo not drawn) showed a melting point of 278.9 °C. Regarding `Br.CN1C(=NC2CCCCCC2)SCC1C(=O)Nc1cc(Cl)cc(Cl)c1` (stereo not drawn), the melting point was found to be 275.2 °C. In the case of `Br.CN1C(=NC2CCCCCC2)SCC1C(=O)Nc1ccc(Cl)cc1` (stereo not drawn), the melting point was found to be 286.5 °C. `Br.CCCCc1ccc(NC(=O)C2CSC(=NC3CCCCCC3)N2C)cc1` (stereo not drawn): the melting point was determined as 240.8 °C. Take `Br.CC(C)c1ccc(NC(=O)C2CSC(=NC3CCCCCC3)N2C)cc1` (stereo not drawn): the melting point is 282.2 °C. Consider `Br.CN1C(=NC2CCCCCC2)SCC1C(=O)Nc1ccc(Oc2ccccc2)cc1` (stereo not drawn), for which the melting point is 149.5 °C. The compound `Br.CN1C(=NC2CCCCCC2)SCC1C(=O)Nc1ccc(C(C)(C)C)cc1` (stereo not drawn) showed a melting point of 169.9 °C. Turning to `Br.CN1C(=NC2CCCCCC2)SCC1C(=O)Nc1cc(Cl)ccc1F` (stereo not drawn), the melting point came out at 262.2 °C.

The compound `Br.CN1C(=NC2CCCCCC2)SCC1C(=O)Nc1cc(C(F)(F)F)cc(C(F)(F)F)c1` (stereo not drawn) showed a melting point of 274.1 °C.

Consider `CCCCN1C(=NC23CC4CC(CC(C4)C2)C3)SCC1CC(=O)Nc1cc(Cl)cc(Cl)c1.Cl` (stereo not drawn), for which the melting point was 164 °C. With `CCCCN1C(=NC23CC4CC(CC(C4)C2)C3)SCC1CC(=O)Nc1cc(CF)cc(CF)c1.Cl` (stereo not drawn), the melting point is 252 °C. For `CCCCN1C(=NC23CC4CC(CC(C4)C2)C3)SCC1CC(=O)Nc1ccc(Oc2ccccc2)cc1.Cl` (stereo not drawn), the melting point came out at 127 °C. The value for `CCCCc1ccc(NC(=O)CC2CSC(=NC34CC5CC(CC(C5)C3)C4)N2C(C)C)cc1.Cl` (stereo not drawn) was 178 °C; that for `CCCCc1ccc(NC(=O)CC2CSC(=NC3C4CC5CC(C4)CC3C5)N2C)cc1.Cl` (stereo not drawn) was 127 °C. `CC(C)c1ccc(NC(=O)CC2CSC(=NC3C4CC5CC(C4)CC3C5)N2C)cc1.Cl` (stereo not drawn) showed a melting point of 245 °C. `CN1C(=NC2CCCCC2)SCC1CC(=O)Nc1ccc2c(c1)OCO2.Cl` (stereo not drawn) (hydrate or solvate) [KHG24086, (2-cyclohexylimino-3-methyl-1,3-thiazolidine-4-yl)-N-(3,4-methylenedioxyphenyl)-acetamide hydrochloride] had a melting point of 146 to 147 °C. The value for `COc1ccc(NC(=O)CC2C(C)SC(=NC3CCCCC3)N2C)cc1` (stereo not drawn) [KHG24481, (2-cyclohexylimino-3,5-dimethyl-1,3-thiazolidine-4-yl)-N-(4-methoxyphenyl)-acetamide] was 258 to 260 °C; that for `COc1ccc(NC(=O)CC2C(C)SC(=NC3CCCCCC3)N2C)cc1` (stereo not drawn) [KHG24485, (2-cycloheptylimino-3,5-dimethyl-1,3-thiazolidine-4-yl)-N-(4-methoxyphenyl)-acetamide] was 250 to 251 °C; that for `CN1C(=NC2CCCCCC2)SCC1C(=O)Nc1ccccc1` (stereo not drawn) [KHG24622, (2-cycloheptylimino-3-methyl-1,3-thiazolidine-4-yl)-N-phenyl-carboxamide] was 208 °C. The value for `CN1C(=NC2CCCCCC2)SCC1C(=O)Nc1ccccc1Cl` (stereo not drawn) [KHG24624, (2-cycloheptylimino-3-methyl-1,3-thiazolidine-4-yl)-N-(2-chlorophenyl)-carboxamide] was 198.4 °C. `CN1C(=NC2CCCCCC2)SCC1C(=O)Nc1cc(F)ccc1F` (stereo not drawn) [KHG24625, (2-cycloheptylimino-3-methyl-1,3-thiazolidine-4-yl)-N-(2,5-difluorophenyl)-carboxamide] returned a melting point of 184.2 °C.

The compound `CN1C(=NC2CCCCCC2)SCC1C(=O)Nc1ccc(F)cc1` (stereo not drawn) [KHG24631, (2-cycloheptylimino-3-methyl-1,3-thiazolidine-4-yl)-N-(4-fluorophenyl)-carboxamide] yielded a melting point of 169.6 °C. Compound `CN1C(=NC2CCCCCC2)SCC1C(=O)Nc1cc([N+](=O)[O-])ccc1F` (stereo not drawn) [KHG24661, (2-cycloheptylimino-3-methyl-1,3-thiazolidine-4-yl)-N-(2-fluoro-5-nitrophenyl)-carboxamide] yielded a melting point of 151.1 °C.
